Laboratory results taken from ChEMBL document CHEMBL5653615 (J Biol Chem, 2013).
Values belong to the compound of their own block, whether it stands above or below them.

Tests used:
[1] = molecular target: T1, Serine/threonine-protein kinase BRSK2 (Homo sapiens) (UniProt Q8IWQ3); experiment: Inhibition of human BRSK2 at 18.6 nM by HotSpot assay relative to control
T1 sequence (whole entry): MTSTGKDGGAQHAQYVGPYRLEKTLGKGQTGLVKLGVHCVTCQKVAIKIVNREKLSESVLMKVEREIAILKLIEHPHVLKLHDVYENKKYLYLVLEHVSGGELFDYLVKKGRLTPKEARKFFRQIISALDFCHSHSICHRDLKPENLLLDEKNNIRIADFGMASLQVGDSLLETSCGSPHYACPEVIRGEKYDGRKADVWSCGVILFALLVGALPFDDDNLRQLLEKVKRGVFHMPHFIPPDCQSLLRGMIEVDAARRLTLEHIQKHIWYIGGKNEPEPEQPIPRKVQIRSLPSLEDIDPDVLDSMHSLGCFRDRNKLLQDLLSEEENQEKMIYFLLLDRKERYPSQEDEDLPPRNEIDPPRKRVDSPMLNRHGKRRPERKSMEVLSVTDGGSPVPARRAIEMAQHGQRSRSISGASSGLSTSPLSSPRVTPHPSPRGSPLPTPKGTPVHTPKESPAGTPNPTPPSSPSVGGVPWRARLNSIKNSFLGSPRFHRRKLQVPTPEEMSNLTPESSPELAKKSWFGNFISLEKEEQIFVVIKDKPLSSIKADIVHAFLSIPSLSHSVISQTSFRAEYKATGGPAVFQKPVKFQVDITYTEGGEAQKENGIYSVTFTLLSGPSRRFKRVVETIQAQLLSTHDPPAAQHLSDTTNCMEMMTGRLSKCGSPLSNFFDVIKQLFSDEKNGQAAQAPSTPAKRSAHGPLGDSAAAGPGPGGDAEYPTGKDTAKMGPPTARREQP

[2] = molecular target: T2, Ephrin type-A receptor 3 (Homo sapiens) (UniProt P29320); experiment: Inhibition of human EPHA3 at 18.6 nM by HotSpot assay relative to control
T2 sequence (whole entry): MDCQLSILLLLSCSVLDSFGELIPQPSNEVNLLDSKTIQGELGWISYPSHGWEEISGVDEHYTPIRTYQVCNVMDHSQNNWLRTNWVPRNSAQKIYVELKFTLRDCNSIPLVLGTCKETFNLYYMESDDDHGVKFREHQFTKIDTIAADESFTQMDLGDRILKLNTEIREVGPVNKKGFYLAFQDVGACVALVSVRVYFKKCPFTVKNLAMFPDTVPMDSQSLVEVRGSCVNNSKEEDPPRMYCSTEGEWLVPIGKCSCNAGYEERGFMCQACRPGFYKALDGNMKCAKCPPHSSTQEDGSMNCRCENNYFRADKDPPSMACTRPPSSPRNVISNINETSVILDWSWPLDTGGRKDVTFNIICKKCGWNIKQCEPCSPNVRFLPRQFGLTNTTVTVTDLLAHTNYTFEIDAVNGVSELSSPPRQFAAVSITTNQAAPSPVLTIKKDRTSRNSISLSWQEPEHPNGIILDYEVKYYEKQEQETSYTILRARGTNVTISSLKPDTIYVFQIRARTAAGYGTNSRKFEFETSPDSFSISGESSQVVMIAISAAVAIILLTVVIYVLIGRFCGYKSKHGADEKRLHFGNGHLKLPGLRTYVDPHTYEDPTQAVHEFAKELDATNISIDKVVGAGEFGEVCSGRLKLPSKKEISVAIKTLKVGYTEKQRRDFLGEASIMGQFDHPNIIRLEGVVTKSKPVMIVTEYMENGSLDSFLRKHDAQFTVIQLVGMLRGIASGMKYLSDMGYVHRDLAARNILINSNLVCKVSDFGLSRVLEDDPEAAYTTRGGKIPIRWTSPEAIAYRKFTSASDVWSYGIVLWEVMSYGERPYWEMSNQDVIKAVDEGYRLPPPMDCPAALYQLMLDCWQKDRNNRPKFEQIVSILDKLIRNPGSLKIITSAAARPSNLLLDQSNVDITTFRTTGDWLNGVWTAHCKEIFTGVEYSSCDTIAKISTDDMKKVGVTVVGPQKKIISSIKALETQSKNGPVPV

[3] = molecular target: Tyrosine-protein kinase CSK (Homo sapiens) (UniProt P41240); experiment: Inhibition of human CSK at 1.82 nM by HotSpot assay relative to control
[4] = molecular target: Fibroblast growth factor receptor 4 (Homo sapiens) (UniProt P22455); experiment: Inhibition of human FGFR4 at 1.82 nM by HotSpot assay relative to control
[5] = molecular target: T3, Serine/threonine-protein kinase 17A (Homo sapiens) (UniProt Q9UEE5); experiment: Inhibition of human DRAK1 at 1.82 nM by HotSpot assay relative to control
T3 sequence (whole entry): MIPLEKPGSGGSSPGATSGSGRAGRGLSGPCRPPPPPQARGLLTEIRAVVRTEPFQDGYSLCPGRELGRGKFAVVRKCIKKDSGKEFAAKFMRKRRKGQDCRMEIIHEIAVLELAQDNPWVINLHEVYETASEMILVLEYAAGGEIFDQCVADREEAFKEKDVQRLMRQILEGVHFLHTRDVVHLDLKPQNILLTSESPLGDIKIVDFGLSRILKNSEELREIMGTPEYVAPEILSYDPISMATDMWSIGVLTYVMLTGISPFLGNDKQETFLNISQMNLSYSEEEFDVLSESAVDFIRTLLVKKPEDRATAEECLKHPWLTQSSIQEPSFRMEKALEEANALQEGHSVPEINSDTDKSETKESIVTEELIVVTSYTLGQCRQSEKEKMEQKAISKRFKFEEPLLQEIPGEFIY

[6] = molecular target: Platelet-derived growth factor receptor beta (Homo sapiens) (UniProt P09619); experiment: Inhibition of human PDGFRb at 500 nM by HotSpot assay relative to control
Chain of Platelet-derived growth factor receptor beta (Homo sapiens) (P09619 whole entry): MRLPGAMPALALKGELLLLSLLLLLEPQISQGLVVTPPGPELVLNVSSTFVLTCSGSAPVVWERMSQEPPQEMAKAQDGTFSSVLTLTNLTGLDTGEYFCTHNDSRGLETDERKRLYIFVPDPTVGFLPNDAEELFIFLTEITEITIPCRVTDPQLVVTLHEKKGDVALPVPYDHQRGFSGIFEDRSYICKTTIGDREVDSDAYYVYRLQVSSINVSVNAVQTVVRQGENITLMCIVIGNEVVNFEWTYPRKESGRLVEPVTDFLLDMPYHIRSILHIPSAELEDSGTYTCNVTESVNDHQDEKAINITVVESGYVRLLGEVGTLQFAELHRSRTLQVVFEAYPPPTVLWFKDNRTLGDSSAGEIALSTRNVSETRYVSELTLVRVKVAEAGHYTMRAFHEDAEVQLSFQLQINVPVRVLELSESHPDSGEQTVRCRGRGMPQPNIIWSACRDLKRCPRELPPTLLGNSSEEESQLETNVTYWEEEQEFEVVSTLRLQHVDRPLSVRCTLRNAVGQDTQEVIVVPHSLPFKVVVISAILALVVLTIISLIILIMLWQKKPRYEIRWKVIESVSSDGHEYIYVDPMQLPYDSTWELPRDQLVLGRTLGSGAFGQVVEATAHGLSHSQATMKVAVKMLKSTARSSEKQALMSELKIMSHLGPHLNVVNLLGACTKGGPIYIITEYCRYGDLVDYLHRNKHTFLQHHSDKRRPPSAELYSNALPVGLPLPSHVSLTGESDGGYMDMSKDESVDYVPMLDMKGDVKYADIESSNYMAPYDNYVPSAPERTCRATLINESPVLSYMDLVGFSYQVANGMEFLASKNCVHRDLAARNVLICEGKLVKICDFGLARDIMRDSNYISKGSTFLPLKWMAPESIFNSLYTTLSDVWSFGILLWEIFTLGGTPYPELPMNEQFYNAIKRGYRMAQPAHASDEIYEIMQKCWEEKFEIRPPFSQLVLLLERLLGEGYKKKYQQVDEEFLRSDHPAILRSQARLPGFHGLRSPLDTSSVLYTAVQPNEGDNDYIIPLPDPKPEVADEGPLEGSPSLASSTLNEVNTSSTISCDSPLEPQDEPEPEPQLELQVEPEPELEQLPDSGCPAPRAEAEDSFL

Chain of Fibroblast growth factor receptor 4 (Homo sapiens) (P22455 22-802 limits assumed): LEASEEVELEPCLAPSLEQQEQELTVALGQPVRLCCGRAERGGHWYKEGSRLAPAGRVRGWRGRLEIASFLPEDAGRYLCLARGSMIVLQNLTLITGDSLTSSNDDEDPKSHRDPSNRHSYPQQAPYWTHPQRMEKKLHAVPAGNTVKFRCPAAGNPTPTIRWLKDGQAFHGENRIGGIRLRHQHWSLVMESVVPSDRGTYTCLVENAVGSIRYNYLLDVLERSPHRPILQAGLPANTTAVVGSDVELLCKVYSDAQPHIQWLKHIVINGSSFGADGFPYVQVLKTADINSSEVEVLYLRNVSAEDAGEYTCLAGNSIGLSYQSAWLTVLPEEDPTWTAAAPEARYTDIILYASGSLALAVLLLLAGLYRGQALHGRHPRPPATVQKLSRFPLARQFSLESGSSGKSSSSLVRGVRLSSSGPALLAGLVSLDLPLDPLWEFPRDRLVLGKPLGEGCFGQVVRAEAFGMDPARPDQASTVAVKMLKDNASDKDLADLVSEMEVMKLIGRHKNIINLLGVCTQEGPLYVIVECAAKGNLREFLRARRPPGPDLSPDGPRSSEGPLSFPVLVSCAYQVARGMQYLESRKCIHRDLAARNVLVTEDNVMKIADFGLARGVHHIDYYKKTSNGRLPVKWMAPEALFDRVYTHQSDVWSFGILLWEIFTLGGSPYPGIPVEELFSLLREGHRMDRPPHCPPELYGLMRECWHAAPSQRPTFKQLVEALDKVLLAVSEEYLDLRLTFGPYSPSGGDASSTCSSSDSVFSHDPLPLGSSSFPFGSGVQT
Chain of Tyrosine-protein kinase CSK (Homo sapiens) (P41240 2-450 limits assumed): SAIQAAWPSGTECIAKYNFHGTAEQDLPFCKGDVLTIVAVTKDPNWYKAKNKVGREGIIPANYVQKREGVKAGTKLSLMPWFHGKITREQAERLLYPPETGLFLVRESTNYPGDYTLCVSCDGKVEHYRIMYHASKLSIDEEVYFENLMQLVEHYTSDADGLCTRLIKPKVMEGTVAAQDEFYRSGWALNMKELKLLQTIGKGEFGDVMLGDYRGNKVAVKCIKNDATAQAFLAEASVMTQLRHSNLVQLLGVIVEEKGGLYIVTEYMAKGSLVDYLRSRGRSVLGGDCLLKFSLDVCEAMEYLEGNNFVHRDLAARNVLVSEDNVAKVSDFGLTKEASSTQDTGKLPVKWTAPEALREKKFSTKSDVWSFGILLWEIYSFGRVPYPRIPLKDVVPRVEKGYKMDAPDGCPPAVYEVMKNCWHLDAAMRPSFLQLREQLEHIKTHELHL

- inhibition [1]: -4.68%
- inhibition [2]: 2.95%
Structure (SMILES): C[C@]1(O)C[C@@H](c2nc(-c3ccc4ccc(-c5ccccc5)nc4c3)c3c(N)nccn32)C1

- inhibition [3]: 3.45%
- inhibition [4]: 6.74%
- inhibition [5]: 2.5%
Structure (SMILES): C[C@@]1(C(=O)Nc2ccc(F)nc2)CCCN1c1nc(Nc2cc(C3CC3)n[nH]2)c2cccn2n1

Structure (SMILES): Oc1n[nH]c2nnc(-c3c(-c4ccccc4)nn4ccccc34)cc12
- inhibition [6]: -0.46%
